Assay results published in patent EP4745131A1, “PYRIMIDINAMINE NUAK INHIBITOR AS WELL AS PREPARATION METHOD THEREFOR AND USE THEREOF” (Technoderma Medicines Inc., priority 2023, dated 2025).

How the values were obtained:
NUAK1 = biological target: T1, NUAK1 (Homo sapiens, UniProt O60285); assay: Kinase activity assay, P81 filter paper binding hot-spot technique (33P-ATP, CHKtide substrate); type: biochemical; settings: final concentration of NUAK1 10 nM; 20 µM CHKtide substrate; 33P-labeled ATP; 2 hours at room temperature; read-out: IC50 (nM) of Test Compounds against NUAK1
T1 sequence (O60285 1-661): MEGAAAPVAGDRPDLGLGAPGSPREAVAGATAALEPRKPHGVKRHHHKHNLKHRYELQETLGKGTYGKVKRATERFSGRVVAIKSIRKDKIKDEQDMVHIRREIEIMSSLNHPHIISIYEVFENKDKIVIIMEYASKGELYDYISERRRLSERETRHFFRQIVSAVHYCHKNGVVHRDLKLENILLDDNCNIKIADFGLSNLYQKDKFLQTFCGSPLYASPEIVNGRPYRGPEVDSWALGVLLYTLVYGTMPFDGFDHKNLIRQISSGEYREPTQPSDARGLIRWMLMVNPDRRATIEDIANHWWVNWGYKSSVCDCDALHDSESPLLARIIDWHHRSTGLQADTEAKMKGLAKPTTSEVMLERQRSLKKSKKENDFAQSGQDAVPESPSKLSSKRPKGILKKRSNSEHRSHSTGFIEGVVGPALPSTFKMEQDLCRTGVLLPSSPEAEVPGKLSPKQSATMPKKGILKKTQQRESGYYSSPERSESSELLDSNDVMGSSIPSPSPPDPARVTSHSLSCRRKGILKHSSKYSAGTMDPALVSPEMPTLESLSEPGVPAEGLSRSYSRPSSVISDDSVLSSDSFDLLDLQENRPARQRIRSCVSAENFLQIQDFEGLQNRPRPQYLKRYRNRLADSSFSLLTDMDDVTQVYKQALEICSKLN
Method: (§1) The inhibitory activity of the pyrimidinamine small molecules involved in the present application against NUAK1 and NUAK2 kinases was determined using a kinase activity assay based on the P81 filter paper binding hot-spot technique (Nat Biotechnol. 2011, 29:1039). A brief description is as follows:
(§2) The assay buffer system contained 20 mM Hepes (pH 7.5), 10 mM MgCl2, 1 mM EGTA, 0.01% Brij35 (L23 polyoxyethylene lauryl ether), 0.02 mg/mL BSA (bovine serum albumin), 0.1 mM Na3VO4, 2 mM DTT, and 1% DMSO.
(§3) • 1. A 20 µM substrate solution was prepared with freshly prepared test buffer and CHKtide peptide fragments (Sanchez Y. Science. 1997, 277: 1497-1501) were used as a substrate. • 2. Kinases were added and mixed gently (a final concentration of NUAK1 was 10 nM; and a final concentration of NUAK2 was 50 nM). • 3. Test compounds dissolved in 100% DMSO were each added to the above kinase reaction mixture solution via Acoustic Droplet Ejection (Echo550; nanoliter) and the mixture was incubated for 5 minutes at room temperature. • 4. ^33P-labeled ATP (a ratio of unlabeled ATP to labeled ATP was 25:1 or 2.5:1) was added. • 5. The mixture was incubated for 2 hours at room temperature. • 6. Kinase activity was tested using the P81 filter paper combined with hotspot technology.
(§4) The IC50 values of the test compounds against NUAK1/NUAK2 were calculated according to the above test. For specific results, see Table 1.
(§5) The IC50 values were calculated by using a formula derived from sigmoidal dose-response curve (variable slope): Y = Bottom + (Top-Bottom)/(1+10^((LogEC50-X)*Slope, where X is the logarithm of compound concentration, Y is the response (inhibition rate of kinase activity), and Y rises from bottom to top along the sigmoidal curve as the concentration increases. Table 1: IC50 (nM) of Test Compounds of the Present Application against NUAK1/NUAK2

NUAK2 = biological target: T2, NUAK2 (Homo sapiens, UniProt Q9H093); assay: as above; type: biochemical; settings: final concentration of NUAK2 50 nM; 20 µM CHKtide substrate; 33P-labeled ATP; 2 hours at room temperature; read-out: IC50 (nM) of Test Compounds against NUAK2
T2 sequence (Q9H093 1-628): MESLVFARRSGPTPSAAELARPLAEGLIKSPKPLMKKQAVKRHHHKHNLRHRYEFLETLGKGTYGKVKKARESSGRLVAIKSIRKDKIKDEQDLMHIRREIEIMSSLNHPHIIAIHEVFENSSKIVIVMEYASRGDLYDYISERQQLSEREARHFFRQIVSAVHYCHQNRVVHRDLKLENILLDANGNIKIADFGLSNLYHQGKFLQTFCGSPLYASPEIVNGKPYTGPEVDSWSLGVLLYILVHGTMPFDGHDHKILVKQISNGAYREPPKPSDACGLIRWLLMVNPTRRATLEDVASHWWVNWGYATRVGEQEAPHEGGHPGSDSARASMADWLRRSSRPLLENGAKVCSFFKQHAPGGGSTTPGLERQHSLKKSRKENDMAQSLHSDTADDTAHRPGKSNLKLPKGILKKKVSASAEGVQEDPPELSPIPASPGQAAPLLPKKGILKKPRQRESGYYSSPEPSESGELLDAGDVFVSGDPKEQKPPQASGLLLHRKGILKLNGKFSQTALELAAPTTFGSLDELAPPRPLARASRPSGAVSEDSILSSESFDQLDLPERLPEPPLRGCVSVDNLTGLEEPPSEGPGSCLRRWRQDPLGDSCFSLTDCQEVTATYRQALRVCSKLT
Method: as §1, §2, §3, §4, §5

| Compound | IC50 (NUAK1) [nM] | IC50 (NUAK2) [nM] |
| --- | --- | --- |
| COc1cc(C2CCN(C)C2)ccc1Nc1nccc(-n2ccc(C(=O)NCC#N)c2)n1 (centres unmarked) [TDM-181158] | 394 | – |
| CN1CCC(n2cc(Nc3nccc(-c4cnn(C(=O)C5CC5)c4)n3)cn2)CC1 [TDM-181169, Cyclopropyl(4-(2-((1-(1-methylpiperidin-4-yl)-1H-pyrazol-4-yl)amino)pyrimidin-4-yl)-1H-pyrazol-1-yl)methanone] | 209 | 495 |
| CNC(=O)c1ccn(-c2nc(Nc3ccc(N4CCN(C)CC4)cc3)ncc2Cl)c1 [TDM-181170, 1-(5-Chloro-2-((4-(4-methylpiperazin-1-yl)phenyl)amino)pyrimidin-4-yl)-N-methyl-1H-pyrrole-3-carboxamide] | 14 | 78 |
| O=C(Nc1cnn(-c2ccnc(Nc3cnn(C4CCNCC4)c3)n2)c1)[C@@H]1CC1(F)F [TDM-181159, 2,2-Difluoro-N-(1-2-((1-(piperidin-4-yl)-1H-pyrazol-4-ylamino)pyrimidin-4-yl)-1H-pyrazol-4-yl)cyclopropane-1-carboxamide] | 337 | 419 |
| 1-(5-chloro-2-((2-methoxy-4-(piperidin-4-yl)phenyl)amino)pyrimidin-4-yl)-N-(cyanomethyl)-1H-pyrrole-3-carboxamide [TDM-181157] | 194 | 487 |
| COc1cc(N2CCN(C)CC2)ccc1Nc1ncc(Cl)c(-n2ccc(C(=O)NCC#N)c2)n1 [TDM-181155, 1-(5-Chloro-2-((2-methoxy-4-(4-methylpiperazin-1-yl)phenyl)amino)pyrimidin-4-yl)-N-(cyanomethyl)-1H-pyrrole-3-carboxamide] | 43 | 69 |
| N#CCNC(=O)c1ccn(-c2ccnc(Nc3ccc(C4CCNCC4)cc3)n2)c1 [TDM-181154, N-(cyanomethyl)-1-(2-((4-(piperidin-4-yl)phenyl)amino)pyrimidin-4-yl)-1H-pyrrole-3-carboxamide] | 58 | 239 |
| COc1cc(C2CCNCC2)ccc1Nc1nccc(-n2ccc(C(=O)NCC#N)c2)n1 [TDM-181152, N-(Cyanomethyl)-1-(2-((2-methoxy-4-(piperidin-4-yl)phenyl)amino)pyrimidin-4-yl)-1H-pyrrole-3-carboxamide] | 977 | – |
| N#CCNC(=O)c1ccn(-c2ccnc(Nc3cnn(C4CCNCC4)c3)n2)c1 [TDM-181153, N-(Cyanomethyl)-1-(2-((1-(piperidin-4-yl)-1H-pyrazol-4-yl)amino)pyrimidin-4-yl)-1H-pyrrole-3-carboxamide] | 84 | 107 |

More lines, now with the values ahead:

| IC50 (NUAK1) [nM] | IC50 (NUAK2) [nM] | Compound |
| --- | --- | --- |
| 9 | 50 | CN1CCN(c2ccc(Nc3ncc(Cl)c(-n4ccc(C(=O)NCC5CC5)c4)n3)cc2)CC1 [TDM-181171, 1-(5-Chloro-2-((4-(4-methylpiperazin-1-yl)phenyl)amino)pyrimidin-4-yl)-N-(cyclopropylmethyl)-1H-pyrrole-3-carboxamide] |
| 34 | 265 | 2-(1-(piperidin-4-yl)-1H-pyrazol-4-yl)aminopyrimidin-4-yl)-1H-pyrazol-4-ylpropanesulfonamide [TDM-181135] |
| 305 | 210 | N#CCNC(=O)c1cnn(-c2ccnc(Nc3cnn(C4CCNCC4)c3)n2)c1 [TDM-181140, N-(Cyanomethyl)-1-(2-((1-(piperidin-4-yl)-1H-pyrazol-4-yl)amino)pyrimidin-4-yl)-1H-pyrazole-4-carboxamide] |
| 122 | 622 | CCS(=O)(=O)N1CCC(n2cc(-c3ccnc(Nc4cnn(C5CCNCC5)c4)n3)cn2)C1 (centres unmarked) [TDM-181134, 4-(1-(1-(Ethylsulfonyl)pyrrolidin-3-yl)-1H-pyrazol-4-yl)-N-(1-(piperidin-4-yl)-1H-pyrazol-4-yl)pyrimidin-2-amine] |
| 474 | 991 | COc1cc(N2CCN(C)CC2)ccc1Nc1nccc(-n2cc(C(=O)NCC#N)cn2)n1 [TDM-181139, N-(Cyanomethyl)-1-(2-((2-methoxy-4-(4-methylpiperazin-1-yl)phenyl)amino)pyrimidin-4-yl)-1H-pyrazole-4-carboxamide] |
| 6 | 42 | CCCS(=O)(=O)Nc1cnn(-c2nc(Nc3cnc(C4CCNCC4)s3)ncc2Cl)c1 [TDM-181179, N-(1-(5-Chloro-2-((2-(piperidin-4-yl)thiazol-5-yl)amino)pyrimidin-4-yl)-1H-pyrazol-4-yl)propane-1-sulfonamide] |
| 9 | 72 | CCCS(=O)(=O)Nc1cnn(-c2nc(Nc3cnn(C4CCNCC4)c3)ncc2Cl)c1 [TDM-181177, N-(1-(5-Chloro-2-(1-(piperidin-4-yl)-1H-pyrazol-4-ylamino)pyrimidin-4-yl)-1H-pyrazol-4-yl)propane-1-sulfonamide] |
| 19 | 77 | CN1CCN(c2ccc(Nc3nccc(-n4ccc(C(=O)NCC#N)c4)n3)cc2)CC1 [TDM-181147, N-(Cyanomethyl)-1-(2-((4-(4-methylpiperazin-1-yl)phenyl)amino)pyrimidin-4-yl)-1H-pyrrole-3-carboxamide] |
| 607 | – | COc1cc(C2CCN(C)CC2)ccc1Nc1nccc(-n2ccc(C(=O)NCC#N)c2)n1 [TDM-181156, N-(cyanomethyl)-1-(2-((2-methoxy-4-(1-methylpiperidin-4-yl)phenyl)amino)pyrimidin-4-yl)-1H-pyrrole-3-carboxamide] |
| 260 | 602 | COc1cc(N2CCN(C)CC2)ccc1Nc1nccc(-n2ccc(C(=O)NCC#N)c2)n1 [TDM-181146, N-(Cyanomethyl)-1-(2-((2-methoxy-4-(4-methylpiperazin-1-yl)phenyl)amino)pyrimidin-4-yl)-1H-pyrrole-3-carboxamide] |
